According to patent US11744819B2, “Antibiotic cannabinoid-terpene formulations” (priority 2019, dated 2023):
Converted amounts (≈) assume the structure as drawn. Where two headings read alike, the source gives them in different places.

How the values were obtained:
[1] = tested on: Enterococcus faecium 33D3; assay: microbe, parasite or virus in culture
[2] = tested on: Mycobacterium abscessus ATCC 19977; assay: MIC determination (resazurin); assay type: cell-based; conditions: Mycobacteroides abscessus, ATCC19977
[3] = tested on: E. faecium clinical isolate 55A6 (vancomycin and daptomycin resistant); conditions: for Fold reduction in daptomycin MIC in combination with the cannabinoid: E. faecium isolate 55a6
[4] = tested on: E. faecium clinical isolate 69C6 (vancomycin resistant); conditions: for Fold reduction in daptomycin MIC in combination with the cannabinoid: E. faecium isolate 69C6
[5] = tested on: E. faecium clinical isolate 55A6 (vancomycin and daptomycin resistant); assay: microbe, parasite or virus in culture; conditions: Enterococcus faecium
[6] = tested on: Enterococcus faecium 33D3; conditions: for Fold reduction in daptomycin MIC in combination with the cannabinoid: E. faecium isolate 3303; for MIC: clinical enterococcal strain 3303
[7] = tested on: Mycobacterium tuberculosis H37Rv; assay: MIC determination (PrestoBlue); assay type: cell-based; conditions: Mycobacterium tuberculosis, H37RV
[8] = tested on: E. faecium strains 3303, 69C6, 58C9 and 55A6; assay: Kill curves (CFU by serial dilution); assay type: cell-based, Enterococcus faecium; conditions: for kinetics of E. faecium killing: at equal concentrations of CBD, CBG, or CBC; for kinetics of E. faecium killing / bactericidal activity (viability, CFU): FIG. 1; for bactericidal activity (viability, CFU): cannabinoid alone, 1x-4x MIC, planktonic E. faecium; for growth and CFU in combination with daptomycin: ½×MIC of cannabinoid with 1×-⅛×MIC of daptomycin, strains 3303, 58C9, 55A6
[9] = tested on: E. faecium clinical isolate 69C6 (vancomycin resistant); assay: microbe, parasite or virus in culture; conditions: Enterococcus faecium
[10] = tested on: biofilms of E. faecium strain 3303; assay: Biofilm treatment (crystal violet mass, viable bacteria); assay type: cell-based, Enterococcus faecium; conditions: 48 h biofilms of strain 3303 treated 72 h; FIG. 4
Procedure: The data in FIG. 4 was generated by growing biofilms of E. faecium strain 3303 for 48 h without cannabinoids, then treating the biofilms with cannabinoids for 72 h. The mass of the biofilm was quantitated by crystal violet staining. Viable bacteria in the biofilm were quantitated by scrapping biofilm then counting the viable bacteria. As illustrated, CBO and CBG illustrate a surprising degree of antibiotic activity against the strain 3303 of E. faecium. Of note, CBC was bactericidal against planktonic Enterococci.

enterococci = conditions: MIC 4 mg/L; 6 mg/kg doses; enterococcal bacteremia; cited from earlier work
[11] = 33D3, Enterococcus faecium 33D3 (Table 1)
[12] = 33D3, clinical enterococcal strain 3303

Structure (SMILES) | MIC [1, 11] | MIC [1, 12] | MIC [2] | Fold reduction in daptomycin MIC in combination with the cannabinoid [3] | Fold reduction in daptomycin MIC in combination with the cannabinoid [4] | MIC [5] | Fold reduction in daptomycin MIC in combination with the cannabinoid [6] | MIC ([7]; Media 7H9, read-out: MIC) | MIC ([7]; Media PB, read-out: MIC) | kinetics of E. faecium killing [8] | bactericidal activity (viability, CFU) [8] | growth and CFU in combination with daptomycin [8] | MIC [9] | inhibition of E. faecium biofilm growth [10] | also measured
CCCCCc1cc(O)c2c(c1)OC(C)(CCC=C(C)C)C=C2 (centres unmarked) [CBC, cannabichromene] | 1 to 2 µg/mL (≈ 3.18 to 6.36 µM) | 1 µg/mL (≈ 3.18 µM) | 4 µg/mL (≈ 12.7 µM) | 512 Fold | 32 Fold | 1 µg/mL (≈ 3.18 µM) | 128 Fold | 8 µg/mL (≈ 25.4 µM) | 4 µg/mL (≈ 12.7 µM) | faster than for CBO | bactericidal | significantly inhibited growth of all strains and reduced CFU | 1 µg/mL (≈ 3.18 µM) |  | 
C=C(C)[C@@H]1CCC(C)=C[C@H]1c1c(O)cc(CCCCC)cc1O [CBD, cannabidiol, reference compound] | 1 to 2 µg/mL (≈ 3.18 to 6.36 µM) | 1 µg/mL (≈ 3.18 µM) |  |  |  | 2 µg/mL (≈ 6.36 µM) |  | 16 µg/mL (≈ 50.9 µM) | 4 µg/mL (≈ 12.7 µM) |  | bactericidal | significantly inhibited growth of all strains and reduced CFU | 1 µg/mL (≈ 3.18 µM) | surprisingly effective at inhibiting E. faecium biofilm growth | MIC ([2]; Mycobacterium abscessus ATCC 19977, read-out: MIC): 16 µg/mL (≈ 50.9 µM)
CCCCCc1cc(O)c(C/C=C(\C)CCC=C(C)C)c(O)c1 [CBG, cannabigerol] | 1 to 2 µg/mL (≈ 3.16 to 6.32 µM) | 1 µg/mL (≈ 3.16 µM) | 2 µg/mL (≈ 6.32 µM) | 4 Fold | 4 Fold | 1 µg/mL (≈ 3.16 µM) | 32 Fold | 2 µg/mL (≈ 6.32 µM) | 2 µg/mL (≈ 6.32 µM) | faster than for CBO | bactericidal | significantly inhibited growth of all strains and reduced CFU | 1 µg/mL (≈ 3.16 µM) | surprisingly effective at inhibiting E. faecium biofilm growth | 
CCCCCCCCCC(=O)N[C@@H](Cc1c[nH]c2ccccc12)C(=O)N[C@H](CC(N)=O)C(=O)N[C@@H](CC(=O)O)C(=O)N[C@@H]1C(=O)NCC(=O)N[C@@H](CCCN)C(=O)N[C@@H](CC(=O)O)C(=O)N[C@H](C)C(=O)N[C@@H](CC(=O)O)C(=O)NCC(=O)N[C@H](CO)C(=O)N[C@@H]([C@H](C)CC(=O)O)C(=O)N[C@@H](CC(=O)c2ccccc2N)C(=O)O[C@@H]1C [Daptomycin, daptomycin, reference compound] |  |  |  |  |  |  |  |  |  |  |  |  |  |  | MIC ([3]; clinical enterococcal strain 55A6, vancomycin and daptomycin resistant): 8 µg/mL (≈ 4.94 µM); MIC ([4]; clinical enterococcal strain 69C6, vancomycin resistant): 1 µg/mL (≈ 0.617 µM); MIC [6]: 2 µg/mL (≈ 1.23 µM); MIC ([6]; listed as daptomycin): 1 µg/mL (≈ 0.617 µM); reduction in CFU ([8]; daptomycin alone at 1×MIC (growth inhibited)): no reduction in CFU; inhibition of growth ([8]; single agent at ½×MIC, all strains (3303, 58C9, 55A6)): effectively no inhibition of growth; probability of attaining target pharmacokinetic parameters (enterococci): 1.5-5.5%
